# Reference: PubChem BioAssay AID624207 (Sanford-Burnham Center for Chemical Genomics, 2012)
# The source made the active and inactive calls.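 Rule for the calls: active = compounds blocking the phosphatase with IC50 at or below a set limit; inactive = the rest.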
# Target: Tyrosine-protein phosphatase non-receptor type 5 (Homo sapiens) (UniProt P54829)
# Test: STEP phosphatase inhibitor potency, dose response, orthogonal assay for STEP inhibitor project, biochemical, colorimetric absorbance (AID 624207)
# Details: recombinant STEP, pNPP colorimetric absorbance
# Sequence of Tyrosine-protein phosphatase non-receptor type 5 (Homo sapiens) (P54829 whole entry, looked up): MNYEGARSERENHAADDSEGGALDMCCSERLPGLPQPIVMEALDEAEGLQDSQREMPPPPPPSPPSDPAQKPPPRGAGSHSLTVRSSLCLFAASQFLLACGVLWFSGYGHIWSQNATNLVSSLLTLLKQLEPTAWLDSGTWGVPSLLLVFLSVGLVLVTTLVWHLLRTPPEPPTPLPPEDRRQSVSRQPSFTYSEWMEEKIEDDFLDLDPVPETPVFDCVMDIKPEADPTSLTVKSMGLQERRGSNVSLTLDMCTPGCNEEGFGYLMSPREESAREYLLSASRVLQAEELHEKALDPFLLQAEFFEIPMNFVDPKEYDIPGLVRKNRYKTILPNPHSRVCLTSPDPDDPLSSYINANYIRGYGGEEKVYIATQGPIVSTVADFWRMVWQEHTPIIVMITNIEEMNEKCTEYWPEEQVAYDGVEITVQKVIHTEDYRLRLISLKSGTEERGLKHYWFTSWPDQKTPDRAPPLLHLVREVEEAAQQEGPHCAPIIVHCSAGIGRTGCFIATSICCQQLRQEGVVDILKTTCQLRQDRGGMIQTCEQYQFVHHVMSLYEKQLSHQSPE
row,Structure (SMILES),IC50
1,COc1ccc(/C=N/N=C2/NC(=O)C(CC(=O)O)S2)cc1OCc1ccc(Cl)cc1Cl (centres undefined),13.6 µM
2,S=C1NC2=C(CCCC2=C2SCCS2)C(c2ccccc2)N1 (centres undefined),inactive
3,CCOc1cc(/C=N/N=C2/NC(=O)C(CC(=O)O)S2)ccc1OCc1ccc(Cl)cc1Cl (centres undefined),> 80 µM (inactive)
4,S=C1NC(C23CC4CC(CC(C4)C2)C3)=CC(c2ccc3c(c2)OCO3)N1 (centres undefined),> 80 µM (inactive)

# The remaining lines, values ahead:
row,IC50,Structure (SMILES)
1,4.99 µM,CSc1ccc(C=NNc2ccc(S(=O)(=O)Nc3ccccc3C(=O)O)cc2[N+](=O)[O-])cc1
2,> 80 µM (inactive),COc1ccc(OC)c(N2C(=O)[C@@H]3C(c4ccccc4Cl)=NO[C@@H]3C2=O)c1
3,> 80 µM (inactive),CC1=C(O)C(=O)C(C2=C(O)C(=O)C(C)=C(O)C2=O)=C(O)C1=O
4,inactive,O=C1C(=O)N(CCCO)C(c2ccc(Br)cc2)/C1=C(\O)c1ccc(Br)cc1 (centres undefined)
5,15.8 µM,O=C(NN=Cc1ccccc1O)c1cccc([N+](=O)[O-])c1
